Assays:
[1] = test system: wildtype K. oxytoca ATCC 8724; assay: Leupeptin detection in culture extracts by HPLC-QTOF-MS; format: cell-based, Klebsiella oxytoca; conditions: added to cultivation medium
Protocol: 5 mL of the leupeptin reporter strain was cultured aerobically in 10 g/L of LB (Becton Dickinson), yeast extract, GAM (HiMedia Laboratories), horse liver extract (HiMedia Laboratories), malt extract (VWR), meat extract (HiMedia Laboratories), YPD (Dot Scienticifc), brain heart infusion (Becton Dickinson), porcine mucin (Sigma-Aldrich, M1778), clostridial (Becton Dickinson), TSB (VWR), or casamino acid supplemented (5 g/L, VWR) M9 minimal salts (MP Biomedicals) at 30 °C for 24 h at 250 rpm. Cultures were lysed via sonication, centrifuged, and 150 µL of the supernatants were aliquoted into black well clear bottom 96 well plates. GFP fluorescence measurements were performed on a BioTek Synergy H1 plate reader with an excitation wavelength of 488 nm and an emission wavelength of 525 nm. For the carbohydrate screen, the leupeptin reporter strain was cultured in M9 minimal medium (MPbio) supplemented with casamino acid (5 g/L, VWR) and 0.4% indicated sugar aerobically at 30 °C for 24 h at 250 rpm.
For MS-based determination of leupeptin activation, wildtype K. oxytoca ATCC 8724 was cultured in 5 mL of M9 minimal medium supplemented with 5 g/L casamino acids and 0.4% Neu5Ac. […] To measure the area under the curves for specific molecular features, the exact monoprotonated [M + H]^+ mass was calculated and extracted ion chromatographs (EICs) with a 10-ppm error were constructed. […]

K. oxytoca = assay: Culture growth (OD600) with sialic acid supplementation; format: cell-based, Klebsiella oxytoca; conditions: M9+CAS with sialic acid, peer review file, not added to the study
Protocol: as 2 times the recorded value). Importantly, all cultures in this experiment grew. […]
supplemented cultures. All cultures had reached stationary phase after 24 hours. While Neu5Gc cultures did grow slower than Neu5Ac cultures, the term suppression was incorrect. Therefore, we deleted text around Neu5Gc suppression and have changed line 123 to now read: […]
the SI. The following growth analysis was not added to the study.
2. Fig3 describes the role of PLP-enzyme for the production of pyrazines (features 5-9). From
Fig.3a it is clear that features 5 and 7 are different from 6, 8, and 9. Are there functional differences between these 2 groups of compounds in terms of siderophore production? […]
complementation of the pyr mutant with feature 7 could induce siderophore production (Fig4).
What about the features from the other group (6, 8, and 9)?
To address this comment, we performed RNA-seq analysis feeding compound 6 and looked at regulated genes/operons. Similar to compound 7, compound 6 supplementation increased the […]
a table listing specific genes, is now included in the SI. As such, lines 345-348 now read: […]
compound also differentially regulated the transcriptome (201 genes with Padj < 0.05; abs(log2FC) > 1) and enhanced the transcription of genes related to iron acquisition and iron metabolism (Supplemental Information).”
(also on this page, place not known: value ). PLP -enzyme -9). […]

O=C(CO)N[C@H]1[C@H]([C@H](O)[C@H](O)CO)OC(O)(C(=O)O)C[C@@H]1O (some centres unmarked) [Neu5Gc, N-glycolneuraminic acid]
induction of leupeptin (1) production [1]: unable to induce the production of 1 | culture growth (K. oxytoca): grew about as fast as non-

— publication PMC11480411, “Mucosal sugars delineate pyrazine vs pyrazinone autoinducer signaling in Klebsiella oxytoca” (Nature Communications, 2024)
